Measurements from patent publication EP4768499A1, “MACROCYCLIC PEPTIDE COMPOUND HAVING CELL MEMBRANE PERMEABILITY AND METABOLIC STABILITY, AND LIBRARY CONTAINING SAME” (Chugai Seiyaku Kabushiki Kaisha, priority 2023, dated 2025).
Starred links: 1 amine or outer side, 2 acyl side, 3 side chain; linkers in the order of their positions; H or OH if unused. Positions of bridges follow the written chain, without caps; N, C: chain ends. Non-standard residues stand in square brackets, D forms with d. Residues, ends and D or L forms follow the SMILES beside them. *: point of attachment. NMeF = CN[C@@H](Cc1ccccc1)C(=O)O; NMeGABA = CN(CCCC(=O)[*:2])[*:1]; NMeI = CC[C@H](C)[C@H](NC)C(=O)O; NMeβAla = CN(CCC(=O)[*:2])[*:1]; NMeL = CN[C@@H](CC(C)C)C(=O)O; NMeV = CN[C@H](C(=O)O)C(C)C; NMeAbu = CC[C@H](NC)C(=O)O; NMeA = CN[C@@H](C)C(=O)O; Piperidide = C1CCN(*)CC1; Sar = CNCC(=O)O; tBu = CC(C)(C)*

Tests used:
[1] = Membrane permeability test using Caco-2 cells with preincubation; assay type: in vitro ADME; conditions: Caco-2; preincubation 20 to 24 hours; Apical FaSSIF/HBSS pH 6.0, Basal HBSS 4% BSA pH 7.4; 180 minutes; read-out: Caco2 Papp
[2] = test system: Caco-2 cells; experiment: as above; assay type: in vitro ADME; conditions: Caco-2 cells, preincubation 20 to 24 hours; apical FaSSIF/HBSS 1% DMSO pH 6.0, basal HBSS 4% BSA pH 7.4; basal sample at 180 minutes
[3] = Metabolic stability test: liver microsomal stability assay; assay type: in vitro ADME, mouse; conditions: mouse liver microsomes 0.5 mg protein/mL, compound 1 µM; for microsomal CLint at 1 µM: male, pH 7.4, presence of NADPH, read-out: Mouse Hepatic Microsome CLh,int NADPH(+); for Mouse Hepatic Microsome CLh,int NADPH(-): absence of NADPH

Row | Papp A→B [1] [×10⁻⁶ cm/s] | Caco2 Papp (10^-6 cm/sec) [2] | microsomal CLint at 1 µM [3] [µL/min/mg] | Mouse Hepatic Microsome CLh,int NADPH(-) [3] [µL/min/mg Protein] | SMILES
1 | 0.17 | 0.17 10^-6 cm/sec | 25.9 | 14.4 | CC[C@H]1C(=O)N(C)[C@@H](CC(C)C)C(=O)N[C@@H]([C@@H](C)O)C(=O)N(C)[C@@H](C)C(=O)N(C)[C@@H](CC(C)C)C(=O)N[C@H](C(=O)N2CCCCC2)CC(=O)N(C)CCCC(=O)N[C@@H](CC(C)C)C(=O)N(C)[C@@H](CC(C)C)C(=O)N(C)[C@@H](C)C(=O)N(C)[C@@H](Cc2ccccc2)C(=O)N[C@@H](C)C(=O)N(C)[C@@H](Cc2ccccc2)C(=O)N1C [pd117] ([NMeGABA]L[NMeL][NMeA][NMeF]A[NMeF][NMeAbu][NMeL]T[NMeA][NMeL]D-Piperidide; lactam N-13)
2 | 0.46 | 0.46 10^-6 cm/sec | 31.2 | 19.8 | CC[C@H](C)[C@H]1C(=O)N[C@@H](Cc2ccccc2)C(=O)N2CCC[C@H]2C(=O)N(C)[C@@H](CC(C)C)C(=O)N[C@@H](COC(C)(C)C)C(=O)N(C)[C@@H](Cc2ccccc2)C(=O)N[C@@H]([C@@H](C)O)C(=O)N(C)[C@@H](CC)C(=O)N2CCC[C@H]2C(=O)N(C)[C@@H](CC(C)C)C(=O)N[C@H](C(=O)N2CCCCC2)CC(=O)N(C)CCCC(=O)N(C)[C@@H](CC(C)C)C(=O)N1C [pd118] ([NMeGABA][NMeL][NMeI]FP[NMeL]S(tBu)[NMeF]T[NMeAbu]P[NMeL]D-Piperidide; lactam N-13)
3 | 0.5 | 0.50 10^-6 cm/sec | 41.2 | 34.2 | CC[C@H](C)[C@H]1C(=O)N[C@@H](CC(C)C)C(=O)N(C)[C@@H](CC(C)C)C(=O)N2CCC[C@H]2C(=O)N(C)[C@@H](C(C)C)C(=O)N[C@H](C(=O)N2CCCCC2)CC(=O)N(C)[C@@H](C)C(=O)N(C)[C@@H](CC(C)C)C(=O)N[C@@H](COC(C)(C)C)C(=O)N(C)[C@@H](Cc2ccccc2)C(=O)N(C)[C@@H](CC)C(=O)N(C)[C@@H](Cc2ccccc2)C(=O)N[C@@H]([C@@H](C)O)C(=O)N1C [pd119] ([NMeA][NMeL]S(tBu)[NMeF][NMeAbu][NMeF]T[NMeI]L[NMeL]P[NMeV]D-Piperidide; lactam N-13)
4 | 0.69 | 0.69 10^-6 cm/sec | 25.8 | 18.4 | CC[C@H](C)[C@H]1C(=O)N[C@@H]([C@@H](C)O)C(=O)N(C)CC(=O)N(C)[C@@H](CC(C)C)C(=O)N(C)[C@@H](Cc2ccccc2)C(=O)N[C@H](C(=O)N2CCCCC2)CC(=O)N(C)[C@@H](C)C(=O)N[C@@H](CC(C)C)C(=O)N(C)[C@@H](Cc2ccccc2)C(=O)N(C)CCC(=O)N(C)[C@@H](CC(C)C)C(=O)N(C)CCC(=O)N[C@@H](CC(C)C)C(=O)N1C [pd120] ([NMeA]L[NMeF][NMeβAla][NMeL][NMeβAla]L[NMeI]T[Sar][NMeL][NMeF]D-Piperidide; lactam N-13)
5 | 1.02 | 1.02 10^-6 cm/sec | 21.9 | 18.2 | CC[C@H](C)[C@@H]1NC(=O)[C@H](C)N(C)C(=O)C[C@@H](C(=O)N2CCCCC2)NC(=O)[C@H](CC)N(C)C(=O)[C@H](COC(C)(C)C)NC(=O)[C@H](CC(C)C)N(C)C(=O)[C@H](C)N(C)C(=O)[C@H](CC(C)C)N(C)C(=O)[C@H](Cc2ccccc2)N(C)C(=O)CN(C)C(=O)[C@H]([C@@H](C)O)NC(=O)[C@H](CC(C)C)N(C)C(=O)[C@H](Cc2ccccc2)N(C)C1=O [pd121] ([NMeA]I[NMeF][NMeL]T[Sar][NMeF][NMeL][NMeA][NMeL]S(tBu)[NMeAbu]D-Piperidide; lactam N-13)
